Earlier results in US12116608B2, “Extended metabolism methods for increasing and extracting metabolites from algae and microorganisms” (Synergraze Inc., priority 2022, dated 2024).

Conditions: general description

SMILES: BrC(Br)Br [bromoform]
- solubility in water: soluble in water
